Source: patent US7166634B2, “Bis-indole pyrroles useful as antimicrobials agents” (Nereus Pharmaceuticals, Inc., priority 2004, dated 2007)
Values after ≈ are worked out from the molar mass of the structure shown.

Each compound was assayed on S. epidermidis - ATCC 700578 (assay: MIC, broth microdilution (NCCLS M7-A5)). Settings: S. epidermidis - ATCC 700578; Table 3.
Assay type: cell-based
Design: Staph Epi 700578 MIC: unit not given here
Description: (§1) Minimum inhibitory concentrations (MICs) are determined according to the National Committee for Clinical Laboratory Standards (NCCLS) susceptibility test guideline M7-A5 (Ferraro, M. 2001 Methods for Dilution Antimicrobial Susceptibility Tests for Bacteria that Grow Aerobically; Approved Standard (NCCLS). National Committee for Clinical Laboratory Standards (NCCLS), Villanova) to quantify the antimicrobial activity of the compounds of the present embodiment against various pathogenic bacteria. Susceptibility testing is performed by broth microdilution in accordance with National Committee for Clinical Laboratory Standards (NCCLS) guidelines. This procedure entails combining the test compounds with a standardized number of cells, incubating at the temperature and amount of time appropriate for each particular organism, and visually scoring the concentration at which no growth was apparent in the test wells. The panel includes both drug sensitive and drug resistant isolates of both gram-positive and gram-negative bacteria, including: S. aureus (both MSSA and MRSA), S. pneumoniae (wild type and penicillin-resistant), vancomycin-sensitive E. faecalis, vancomycin-resistant E. faecium, E. coli, H. influenzae and P. aeruginosa.
(§2) Susceptibility testing was performed by broth microdilution in accordance with National Committee for Clinical Laboratory Standards (NCCLS) guidelines. Antimicrobial data for compounds of Formulae II, III, IV, VI, VII, VIII, IX, XII, XIII, XIV, XV′, XV, XVI, XVII, XVIII, XXI′, XXII, XXIII, XXIV, and XXV are shown in Tables 3, 4 and 5.

Compound	MIC [µg/mL]
Clc1cc2[nH]cc(-c3c[nH]cc3-c3c[nH]c4cc(Cl)c(Cl)cc34)c2cc1Cl [IV]	1 (≈ 2.3 µM)
COC(=O)c1[nH]c(C(=O)OC)c(-c2c[nH]c3ccc(Cl)cc23)c1-c1c[nH]c2ccc(Cl)cc12 [VI]	4 (≈ 8.29 µM)

Same assay, conditions: Table 4; averages of 2 experiments, * single experiment; both values given when differing >2 fold

Compound	Staph Epi 700578 MIC
COC(=O)c1[nH]c(C(=O)OC)c(-c2c[nH]c3ccc(F)cc23)c1-c1c[nH]c2ccc(F)cc12 [XVIII]	16*

What follows are compounds tested on S. epidermidis - ATCC 700582 (assay: MIC, broth microdilution (NCCLS M7-A5)). Settings: S. epidermidis - ATCC 700582; Table 3.
Assay type: cell-based
Design: Staph Epi 700582 MIC: unit not given here
Description: as §1, §2

Compound	MIC [µg/mL]
Clc1cc2[nH]cc(-c3c[nH]cc3-c3c[nH]c4cc(Cl)c(Cl)cc34)c2cc1Cl [IV]	1 (≈ 2.3 µM)
COC(=O)c1[nH]c(C(=O)OC)c(-c2c[nH]c3ccc(Cl)cc23)c1-c1c[nH]c2ccc(Cl)cc12 [VI]	4 (≈ 8.29 µM)

Same assay, conditions: Table 4; averages of 2 experiments, * single experiment; both values given when differing >2 fold

Compound	Staph Epi 700582 MIC
COC(=O)c1[nH]c(C(=O)OC)c(-c2c[nH]c3ccc(F)cc23)c1-c1c[nH]c2ccc(F)cc12 [XVIII]	16*

These compounds were tested on E. coli - ATCC 25922 (assay: MIC, broth microdilution (NCCLS M7-A5)). Settings: Table 3.
Assay type: cell-based
Description: as §1, §2

Compound	MIC [µg/mL]
Clc1cc2[nH]cc(-c3c[nH]cc3-c3c[nH]c4cc(Cl)c(Cl)cc34)c2cc1Cl [IV]	>32
COC(=O)c1[nH]c(C(=O)OC)c(-c2c[nH]c3ccc(Cl)cc23)c1-c1c[nH]c2ccc(Cl)cc12 [VI]	>32

The compounds below were run on E. coli - imp (assay: MIC, broth microdilution (NCCLS M7-A5)). Settings: E. coli - imp; Table 3.
Assay type: cell-based
Description: as §1, §2

Compound	MIC [µg/mL]
Clc1cc2[nH]cc(-c3c[nH]cc3-c3c[nH]c4cc(Cl)c(Cl)cc34)c2cc1Cl [IV]	6 (≈ 13.8 µM)
COC(=O)c1[nH]c(C(=O)OC)c(-c2c[nH]c3ccc(Cl)cc23)c1-c1c[nH]c2ccc(Cl)cc12 [VI]	>32

Same assay, conditions: Table 5

Compound	E. coli imp MIC [µg/mL]
COC(=O)c1[nH]c(C(=O)OC)c(-c2c[nH]c3ccc(F)cc23)c1-c1c[nH]c2ccc(F)cc12 [XVIII]	>32

What follows are compounds tested on E. faecium - Van^r (VRE 700221) (assay: MIC, broth microdilution (NCCLS M7-A5)). Settings: E. faecium - Van^r; Table 3.
Assay type: cell-based
Description: as §1, §2

Compound	MIC [µg/mL]
Clc1cc2[nH]cc(-c3c[nH]cc3-c3c[nH]c4cc(Cl)c(Cl)cc34)c2cc1Cl [IV]	2 (≈ 4.6 µM)
COC(=O)c1[nH]c(C(=O)OC)c(-c2c[nH]c3ccc(Cl)cc23)c1-c1c[nH]c2ccc(Cl)cc12 [VI]	8 (≈ 16.6 µM)

Same assay, conditions: Table 4; averages of 2 experiments, * single experiment; both values given when differing >2 fold; in µg/mL

Compound	VRE 700221 MIC
COC(=O)c1[nH]c(C(=O)OC)c(-c2c[nH]c3ccc(F)cc23)c1-c1c[nH]c2ccc(F)cc12 [XVIII]	>32*

What follows are compounds tested on H. influenzae - ATCC 49247 (assay: MIC, broth microdilution (NCCLS M7-A5)). Settings: H. influenzae - ATCC 49247; Table 3.
Assay type: cell-based
Description: as §1, §2

Compound	MIC [µg/mL]
Clc1cc2[nH]cc(-c3c[nH]cc3-c3c[nH]c4cc(Cl)c(Cl)cc34)c2cc1Cl [IV]	4 (≈ 9.19 µM)
COC(=O)c1[nH]c(C(=O)OC)c(-c2c[nH]c3ccc(Cl)cc23)c1-c1c[nH]c2ccc(Cl)cc12 [VI]	5 (≈ 10.4 µM)

Same assay, conditions: Table 4 (MIC); averages of 2 experiments, * single experiment; both values given when differing >2 fold

Compound	H. inf. 49247
COC(=O)c1[nH]c(C(=O)OC)c(-c2c[nH]c3ccc(F)cc23)c1-c1c[nH]c2ccc(F)cc12 [XVIII]	>32*

The compounds below were run on H. influenzae - ATCC 49766 (assay: MIC, broth microdilution (NCCLS M7-A5)). Settings: H. influenzae - ATCC 49766; Table 3.
Assay type: cell-based
Description: as §1, §2

Compound	MIC [µg/mL]
Clc1cc2[nH]cc(-c3c[nH]cc3-c3c[nH]c4cc(Cl)c(Cl)cc34)c2cc1Cl [IV]	6 (≈ 13.8 µM)
COC(=O)c1[nH]c(C(=O)OC)c(-c2c[nH]c3ccc(Cl)cc23)c1-c1c[nH]c2ccc(Cl)cc12 [VI]	8 (≈ 16.6 µM)

Same assay, conditions: Table 4 (MIC); averages of 2 experiments, * single experiment; both values given when differing >2 fold

Compound	H. inf. 49766
COC(=O)c1[nH]c(C(=O)OC)c(-c2c[nH]c3ccc(F)cc23)c1-c1c[nH]c2ccc(F)cc12 [XVIII]	>32*

Each compound was assayed on S. aureus - MRSA (43300) (assay: MIC, broth microdilution (NCCLS M7-A5)). Settings: S. aureus - MRSA; Table 3.
Assay type: cell-based
Description: as §1, §2

Compound	MIC [µg/mL]
Clc1cc2[nH]cc(-c3c[nH]cc3-c3c[nH]c4cc(Cl)c(Cl)cc34)c2cc1Cl [IV]	1.5 (≈ 3.45 µM)
COC(=O)c1[nH]c(C(=O)OC)c(-c2c[nH]c3ccc(Cl)cc23)c1-c1c[nH]c2ccc(Cl)cc12 [VI]	3 (≈ 6.22 µM)

Same assay, conditions: Table 4; averages of 2 experiments, * single experiment; both values given when differing >2 fold; in µg/mL

Compound	MRSA 43300 MIC
COC(=O)c1[nH]c(C(=O)OC)c(-c2c[nH]c3ccc(F)cc23)c1-c1c[nH]c2ccc(F)cc12 [XVIII]	12*

What follows are compounds tested on S. aureus - MSSA (29213) (assay: MIC, broth microdilution (NCCLS M7-A5)). Settings: S. aureus - MSSA; Table 3.
Assay type: cell-based
Description: as §1, §2

Compound	MIC [µg/mL]
Clc1cc2[nH]cc(-c3c[nH]cc3-c3c[nH]c4cc(Cl)c(Cl)cc34)c2cc1Cl [IV]	1.1 (≈ 2.53 µM)
COC(=O)c1[nH]c(C(=O)OC)c(-c2c[nH]c3ccc(Cl)cc23)c1-c1c[nH]c2ccc(Cl)cc12 [VI]	3 (≈ 6.22 µM)

Same assay, conditions: Table 4; averages of 2 experiments, * single experiment; both values given when differing >2 fold; in µg/mL

Compound	MSSA 29213 MIC
COC(=O)c1[nH]c(C(=O)OC)c(-c2c[nH]c3ccc(F)cc23)c1-c1c[nH]c2ccc(F)cc12 [XVIII]	8*

What follows are compounds tested on S. pneumoniae - penicillin resistant (51915) (assay: MIC, broth microdilution (NCCLS M7-A5)). Settings: S. pneumoniae - penicillin resistant; Table 3.
Assay type: cell-based
Description: as §1, §2

Compound	MIC [µg/mL]
Clc1cc2[nH]cc(-c3c[nH]cc3-c3c[nH]c4cc(Cl)c(Cl)cc34)c2cc1Cl [IV]	20 (≈ 46 µM)
COC(=O)c1[nH]c(C(=O)OC)c(-c2c[nH]c3ccc(Cl)cc23)c1-c1c[nH]c2ccc(Cl)cc12 [VI]	20 (≈ 41.5 µM)

Same assay, conditions: Table 4; averages of 2 experiments, * single experiment; both values given when differing >2 fold; in µg/mL

Compound	S. pneumo 51915 Pen R MIC
COC(=O)c1[nH]c(C(=O)OC)c(-c2c[nH]c3ccc(F)cc23)c1-c1c[nH]c2ccc(F)cc12 [XVIII]	>32*

Each compound was assayed on S. pneumoniae - penicillin sensitive (49619) (assay: MIC, broth microdilution (NCCLS M7-A5)). Settings: S. pneumoniae - penicillin sensitive; Table 3.
Assay type: cell-based
Description: as §1, §2

Compound	MIC [µg/mL]
Clc1cc2[nH]cc(-c3c[nH]cc3-c3c[nH]c4cc(Cl)c(Cl)cc34)c2cc1Cl [IV]	20 (≈ 46 µM)
COC(=O)c1[nH]c(C(=O)OC)c(-c2c[nH]c3ccc(Cl)cc23)c1-c1c[nH]c2ccc(Cl)cc12 [VI]	24 (≈ 49.8 µM)

Same assay, conditions: Table 4; averages of 2 experiments, * single experiment; both values given when differing >2 fold; in µg/mL

Compound	S. pneumo 49619 Pen. S MIC
COC(=O)c1[nH]c(C(=O)OC)c(-c2c[nH]c3ccc(F)cc23)c1-c1c[nH]c2ccc(F)cc12 [XVIII]	>32*

These compounds were tested on E. faecalis - Van^s (VSE 29212) (assay: MIC, broth microdilution (NCCLS M7-A5)). Settings: E. faecalis - Van^s; Table 3.
Assay type: cell-based
Design: VSE 29212 MIC: unit not given here
Description: as §1, §2

Compound	MIC [µg/mL]
Clc1cc2[nH]cc(-c3c[nH]cc3-c3c[nH]c4cc(Cl)c(Cl)cc34)c2cc1Cl [IV]	2.5 (≈ 5.75 µM)
COC(=O)c1[nH]c(C(=O)OC)c(-c2c[nH]c3ccc(Cl)cc23)c1-c1c[nH]c2ccc(Cl)cc12 [VI]	8 (≈ 16.6 µM)

Same assay, conditions: Table 4; averages of 2 experiments, * single experiment; both values given when differing >2 fold

Compound	VSE 29212 MIC
COC(=O)c1[nH]c(C(=O)OC)c(-c2c[nH]c3ccc(F)cc23)c1-c1c[nH]c2ccc(F)cc12 [XVIII]	>32*
